Converted amounts (≈) assume the structure as drawn.
Columns and labels:
[1] = molecular target: T1, Amyloid-beta precursor protein (Homo sapiens, UniProt P05067); test: Inhibition of Abeta42 (unknown origin) aggregation assessed as ThT fluorescence at 330 uM measured after 24 hrs by ThT fluorescence assay relative to DMSO control; design: scale not given: the % may be the effect or the level left
[2] = molecular target: T1, Amyloid-beta precursor protein; test: Inhibition of Abeta42 (unknown origin) aggregation measured after 24 hrs by ThT fluorescence assay
[3] = Volume of distribution in Swiss mouse brain at 2 mg/kg, iv; assay type: ADME, organism-based
[4] = Aqueous solubility of the compound in PBS at pH 7.4; assay type: physicochemical
[5] = Volume of distribution in Swiss mouse plasma at 2 mg/kg, iv; assay type: ADME, organism-based
[6] = Lipophilicity, logD of the compound; assay type: physicochemical; settings: octanol/water
[7] = Half life in Swiss mouse brain at 2 mg/kg, iv; assay type: ADME, organism-based
[8] = Ratio of drug level in brain to plasma in Swiss mouse at 2 mg/kg, iv measured after 5 mins; assay type: ADME, organism-based; settings: brain and plasma, read-out: BPR
[9] = AUC in Swiss mouse brain at 2 mg/kg, iv; assay type: ADME, organism-based
P-gp = test: Substrate activity at P-gp (unknown origin) assessed as efflux ratio of apparent permeability of the compound; assay type: ADME; settings: human, not told
[10] = Cmax in Swiss mouse plasma at 2 mg/kg, iv; assay type: ADME, organism-based; design: dose 2 mg/kg, route intravenous
[11] = Half life in human liver S9 fraction; assay type: ADME, subcellular
[12] = Half life in Swiss mouse plasma at 2 mg/kg, iv; assay type: ADME, organism-based
[13] = Cmax in Swiss mouse brain at 2 mg/kg, iv; assay type: ADME, organism-based; design: dose 2 mg/kg, route intravenous
[14] = AUC in Swiss mouse plasma at 2 mg/kg, iv; assay type: ADME, organism-based
[15] = Apparent permeability of the compound from apical to basolateral side; assay type: physicochemical; settings: not told
Liver = test: Clearance in human liver S9 fraction; assay type: ADME, subcellular

T1 sequence (P05067 whole entry): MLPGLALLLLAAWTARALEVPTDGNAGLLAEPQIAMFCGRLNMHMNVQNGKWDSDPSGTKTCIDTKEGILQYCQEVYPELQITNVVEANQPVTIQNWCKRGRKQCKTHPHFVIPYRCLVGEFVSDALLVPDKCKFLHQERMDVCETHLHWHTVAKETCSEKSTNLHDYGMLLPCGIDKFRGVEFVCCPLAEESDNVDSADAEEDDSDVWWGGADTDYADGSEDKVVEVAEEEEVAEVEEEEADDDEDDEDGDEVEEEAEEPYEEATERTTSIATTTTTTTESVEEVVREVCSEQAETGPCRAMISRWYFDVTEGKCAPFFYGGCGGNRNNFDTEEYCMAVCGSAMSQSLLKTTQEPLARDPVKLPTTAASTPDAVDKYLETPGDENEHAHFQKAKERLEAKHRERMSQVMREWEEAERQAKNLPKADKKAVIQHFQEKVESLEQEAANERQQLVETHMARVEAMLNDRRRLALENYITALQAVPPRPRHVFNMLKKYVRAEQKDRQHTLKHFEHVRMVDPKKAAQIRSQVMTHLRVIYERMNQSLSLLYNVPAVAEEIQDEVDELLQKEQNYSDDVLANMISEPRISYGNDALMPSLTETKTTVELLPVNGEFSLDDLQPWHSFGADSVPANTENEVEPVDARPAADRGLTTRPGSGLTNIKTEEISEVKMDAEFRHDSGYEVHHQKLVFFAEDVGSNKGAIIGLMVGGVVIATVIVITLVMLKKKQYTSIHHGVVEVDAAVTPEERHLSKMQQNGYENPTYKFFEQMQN

Activity [1] [%]	IC50 [2] [µM]	Compound	also measured
23	–	CNc1cccc(CNc2cccc(CCN(c3ccccn3)c3ccccn3)n2)n1	–
16	280	CNc1cccc(CCNc2cccc(CCNc3ccccn3)n2)n1	–
36	–	CNc1cccc(NCCc2ccccn2)n1	–
12	25	CNc1cccc(NCCc2cccc(NCCc3ccccn3)n2)n1	Vd [3]: 18.9 L/kg; solubility [4]: > 200 µM; Vd [5]: 12 L/kg; logD [6]: 2.96; half-life [7]: 314 min; Kp at 5 min [8]: 5.98; AUC [9]: 863 ng·h/mL; efflux ratio (P-gp): 0.78; Cmax [10]: 308 ng/mL; half-life [11]: 10 min; half-life [12]: 37.8 min; Cmax [13]: 1840 ng/mL; AUC [14]: 150 ng·h/mL; Papp A→B [15]: 49.2 ×10⁻⁶ cm/s; CLH (Liver): 70 µL/min/mg
> 60	–	CNc1cccc(CNc2cccc(CCNc3ccccn3)n2)n1	–
14	–	CNc1cccc(NCCc2cccc(NCc3ccccn3)n2)n1	–
> 60	–	CNc1cccc(CNc2cccc(CNc3ccccn3)n2)n1	solubility [4]: 18 µM (≈ 5.77 µg/mL)
12	–	CNc1cccc(CCNc2cccc(NCCc3ccccn3)n2)n1	solubility [4]: > 200 µM
23	–	CNc1cccc(CCNc2cccc(NC)n2)n1	–
12	17	CNc1cccc(NCCCc2cccc(NCCCc3ccccn3)n2)n1	–
53	–	CNc1cccc(CCNc2cccc(CNc3ccccn3)n2)n1	–
–	1.3	Nc1c(/N=N/c2ccc(-c3ccc(/N=N/c4cc(S(=O)(=O)O)c5ccccc5c4N)cc3)cc2)cc(S(=O)(=O)O)c2ccccc12 [CONGO RED]	–
16	240	CNc1cccc(CCNc2cccc(CCN(c3ccccn3)c3ccccn3)n2)n1	–
23	–	CNc1cccc(CCNc2cccc(CCCNc3ccccn3)n2)n1	–
23	–	CNc1cccc(CCCNc2cccc(CCCNc3ccccn3)n2)n1	–

Source: ChEMBL document CHEMBL3813681, “Synthesis and structure-activity relationship of 2,6-disubstituted pyridine derivatives as inhibitors of β-amyloid-42 aggregation” (Bioorg Med Chem Lett, 2016)
